Measured values as given in US20240300991A1, “NUCLEOSIDE DERIVATIVE HAVING MULTI-TARGET KINASE INHIBITORY ACTIVITY AND PHARMACEUTICAL COMPOSITION FOR PREVENTING AND TREATING CANCER COMPRISING SAME” (FUTURE MEDICINE CO., LTD., priority 2021, published 2024).

How the values were obtained:
CSNK1D = molecular target: T1, CSNK1D (Homo sapiens, UniProt P48730); test: Kinase inhibition test (DNA-tagged kinase, affinity resin, qPCR readout); type: binding; parameters: key: (−) indicates no effect; (+) indicates weak inhibitory activity; (++) indicates a moderate level of inhibitory activity; (+++) indicates strong inhibitory activity; conditions: 1 μM of compound
T1 construct: made in house
T1 sequence (P48730 whole entry): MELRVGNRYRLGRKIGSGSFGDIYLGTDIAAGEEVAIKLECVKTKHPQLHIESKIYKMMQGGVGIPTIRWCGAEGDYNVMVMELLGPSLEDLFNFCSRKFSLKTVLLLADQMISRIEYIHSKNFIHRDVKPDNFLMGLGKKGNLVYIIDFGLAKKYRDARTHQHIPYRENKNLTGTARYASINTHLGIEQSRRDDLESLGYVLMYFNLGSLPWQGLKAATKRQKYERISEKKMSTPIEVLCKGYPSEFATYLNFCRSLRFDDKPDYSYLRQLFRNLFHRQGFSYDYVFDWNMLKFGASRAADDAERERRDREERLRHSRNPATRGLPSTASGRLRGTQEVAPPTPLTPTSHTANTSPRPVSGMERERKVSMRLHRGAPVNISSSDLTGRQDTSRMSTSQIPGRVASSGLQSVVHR
Description: (§1) In order to examine the inhibitory activity of the nucleoside derivatives of the present invention synthesized in the Preparation Examples against kinases, the nucleoside derivatives were confirmed to have inhibitory activity against neurotrophic tyrosine kinase receptor type 1 or tropomyosin receptor kinase A (NTRK1), casein kinase 1 isoform delta (CSNK1D), dual specificity tyrosine-phosphorylation-regulated kinase 1A (DYRK1A), dual specificity tyrosine-phosphorylation-regulated kinase 1B (DYRK1B) and receptor-type tyrosine-protein kinase or fms like tyrosine kinase 3 or cluster of differentiation antigen 135 (CD135) or fetal liver kinase-2 (Flk2) (FLT3).
(§2) The inhibition measurement method is as follows. Most of the kinases were produced by culturing a phage in which BL21 E. coli was tagged with a kinase at 32° C. until lysis, followed by centrifugation and filtration. Further, the kinases were produced using HEK-293 cells. Thereafter, the kinases were DNA tagged for qPCR. After an affinity resin was prepared by stirring a biotin-tagged substrate onto streptavidin-coated beads for 30 minutes, a non-specifically bound substrate was washed with a buffer (SeaBlock (Pierce), 1% BSA, 0.05% Tween 20, 1 mM DTT).
(§3) For a kinase test, the kinase, the substrate, the affinity resin, and a test material dissolved in dimethyl sulfoxide were stirred together in a buffer (20% SeaBlock, 0.17×PBS, 0.05% Tween20, and 6 mM DTT) at room temperature for 1 hour. Thereafter, an affinity substrate was washed with a buffer (1×PBS, 0.05% Tween20), and then suspended in an elution buffer (1×PBS, 0.05% Tween20, 0.5 μM non-biotinylated affinity ligand), and the resulting suspension was stirred. The concentration of the kinase was quantified by qPCR.

DYRK1A = molecular target: T2, DYRK1A (Homo sapiens, UniProt Q13627); test: as above; type: binding; parameters: key: (−) indicates no effect; (+) indicates weak inhibitory activity; (++) indicates a moderate level of inhibitory activity; (+++) indicates strong inhibitory activity; conditions: 1 μM of compound
T2 construct: made in house
Description: as §1, §2, §3

DYRK1B = molecular target: T3, DYRK1B (Homo sapiens, UniProt Q9Y463); test: as above; type: binding; parameters: key: (−) indicates no effect; (+) indicates weak inhibitory activity; (++) indicates a moderate level of inhibitory activity; (+++) indicates strong inhibitory activity; conditions: 1 μM of compound
T3 construct: made in house
T3 sequence (Q9Y463 whole entry): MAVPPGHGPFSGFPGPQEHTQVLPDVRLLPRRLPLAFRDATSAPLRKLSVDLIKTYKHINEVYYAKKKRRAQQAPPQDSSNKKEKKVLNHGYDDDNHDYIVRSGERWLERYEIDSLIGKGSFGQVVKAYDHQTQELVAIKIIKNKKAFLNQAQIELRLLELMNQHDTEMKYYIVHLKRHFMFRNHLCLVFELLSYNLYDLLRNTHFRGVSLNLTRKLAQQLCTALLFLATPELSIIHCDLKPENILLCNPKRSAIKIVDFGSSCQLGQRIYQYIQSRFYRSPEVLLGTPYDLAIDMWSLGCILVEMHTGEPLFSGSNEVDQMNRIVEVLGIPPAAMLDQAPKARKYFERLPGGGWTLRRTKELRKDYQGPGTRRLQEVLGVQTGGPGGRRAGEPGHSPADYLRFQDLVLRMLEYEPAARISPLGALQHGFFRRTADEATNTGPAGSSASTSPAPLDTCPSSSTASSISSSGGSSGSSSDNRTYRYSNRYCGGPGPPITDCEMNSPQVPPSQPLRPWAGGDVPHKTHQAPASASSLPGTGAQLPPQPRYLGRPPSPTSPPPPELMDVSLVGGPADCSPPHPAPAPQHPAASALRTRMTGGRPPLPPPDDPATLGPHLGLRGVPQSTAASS
Description: as §1, §2, §3

NTRK1 = molecular target: T4, NTRK1 (Homo sapiens, UniProt P04629); test: as above; type: binding; parameters: key: (−) indicates no effect; (+) indicates weak inhibitory activity; (++) indicates a moderate level of inhibitory activity; (+++) indicates strong inhibitory activity; conditions: 1 μM of compound
T4 construct: made in house
T4 sequence (P04629 33-796): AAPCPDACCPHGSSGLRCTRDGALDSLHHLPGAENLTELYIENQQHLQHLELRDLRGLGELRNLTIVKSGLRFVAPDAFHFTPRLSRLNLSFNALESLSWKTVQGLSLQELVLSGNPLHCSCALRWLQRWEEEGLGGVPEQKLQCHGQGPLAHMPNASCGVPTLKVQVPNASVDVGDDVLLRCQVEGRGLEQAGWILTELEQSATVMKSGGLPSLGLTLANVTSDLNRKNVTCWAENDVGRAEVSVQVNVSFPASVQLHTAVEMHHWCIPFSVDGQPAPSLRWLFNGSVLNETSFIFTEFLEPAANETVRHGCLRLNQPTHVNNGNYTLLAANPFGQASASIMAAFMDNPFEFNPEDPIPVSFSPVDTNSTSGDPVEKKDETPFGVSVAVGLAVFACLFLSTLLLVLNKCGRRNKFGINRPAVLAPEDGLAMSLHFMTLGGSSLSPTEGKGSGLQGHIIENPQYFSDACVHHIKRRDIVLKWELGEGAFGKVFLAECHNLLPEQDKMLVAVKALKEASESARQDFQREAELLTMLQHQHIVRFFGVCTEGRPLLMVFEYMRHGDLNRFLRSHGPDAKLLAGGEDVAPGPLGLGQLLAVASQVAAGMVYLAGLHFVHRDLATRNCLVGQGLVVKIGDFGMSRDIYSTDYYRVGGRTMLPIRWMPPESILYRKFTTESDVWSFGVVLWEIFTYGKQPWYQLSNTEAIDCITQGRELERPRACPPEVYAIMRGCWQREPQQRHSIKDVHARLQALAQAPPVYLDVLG
Description: as §1, §2, §3

A549 (lung cancer cells) = test: Inhibitory activity against cancer cells (sulforhodamine B staining); type: cell-based; conditions: 3 days, SRB staining
Experimental: (§4) In order to examine the anticancer activity of the nucleoside derivatives of the present invention synthesized in the Preparation Examples, the ICso of each of A549 (lung cancer cells), HCT116 (colon cancer cells), MDA-MB-231 (breast cancer cells), SK-Hep-1 (liver cancer cells), SNU638 (stomach cancer cells) and PC-3 (prostate cancer cells) against cancer cells was measured.
(§5) The test method is as follows. Cells were allowed to stand for 1 day and set as a control on day 0. Further, after a test material was added to the cells, the cells were allowed to stand for 3 days. Thereafter, the cells were stained with 1% acetic acid and 0.4% sulforhodamine B. The stained cells were dried and dissolved in 10 mM Tris (pH 10.0). Absorbance was measured at 515 nm, and the degree of cell division was determined using the following equation. After calculation as Cell division (%)=(average absorbancetest material−average absorbanceday 0)/(average absorbance control-average absorbanceday 0)×100, the degree of cell division was calculated through a non-linear regression analysis using Table Curve 2D v5.01 (Systat Software Inc., San Jose, CA, USA).

[1] = tested on: HCT116 (colon cancer cells); test: as above; type: cell-based; conditions: 3 days, SRB staining
Experimental: as §4, §5

[2] = tested on: MDA-MB-231 (breast cancer cells); test: as above; type: cell-based; conditions: 3 days, SRB staining
Experimental: as §4, §5

[3] = tested on: PC-3 (prostate cancer cells); test: as above; type: cell-based; conditions: 3 days, SRB staining
Experimental: as §4, §5

[4] = tested on: SK-Hep-1 (liver cancer cells); test: as above; type: cell-based; conditions: 3 days, SRB staining
Experimental: as §4, §5

[5] = tested on: SNU638 (stomach cancer cells); test: as above; type: cell-based; conditions: 3 days, SRB staining
Experimental: as §4, §5

| SMILES | CSNK1D inhibitory activity (CSNK1D) | DYRK1A inhibitory activity (DYRK1A) | DYRK1B inhibitory activity (DYRK1B) | NTRK1 inhibitory activity (NTRK1) | IC50 (A549 (lung cancer cells)) [nM] | IC50 [1] [nM] | IC50 [2] [nM] | IC50 [3] [nM] | IC50 [4] [nM] | IC50 [5] [nM] | IC50 (A549 (lung cancer cells); Homo sapiens, 72 h) [nM] | IC50 ([1]; Homo sapiens, HCT-116, 72 h) [nM] | IC50 ([2]; Homo sapiens, 72 h) [nM] | IC50 ([3]; 72 h) [nM] | IC50 ([4]; Homo sapiens, SK-HEP1, 72 h) [nM] | IC50 ([5]; Homo sapiens, SNU-638, 72 h) [nM] |
| --- | --- | --- | --- | --- | --- | --- | --- | --- | --- | --- | --- | --- | --- | --- | --- | --- |
| N#Cc1cn([C@@H]2S[C@H](CN)[C@@H](O)[C@H]2O)c2ncnc(N)c12 [Compound 10b] | ++ | +++ | +++ | ++ | 3830 | 2780 | 4750 | 2450 | 1630 | 1470 | – | – | – | – | – | – |
| NC[C@H]1S[C@@H](n2cc(C(N)=O)c3c(N)ncnc32)[C@H](O)[C@@H]1O [Compound 10c] | ++ | ++ | ++ | ++ | 2510 | 1370 | 2430 | 2740 | 1760 | 2560 | – | – | – | – | – | – |
| N#Cc1cn([C@@H]2S[C@H](CNC(N)=O)[C@@H](O)[C@H]2O)c2ncnc(N)c12 [Compound 11aii] | ++ | ++ | ++ | ++ | 2450 | 1830 | 1080 | 3560 | 2870 | 6730 | – | – | – | – | – | – |
| NC(=O)NC[C@H]1S[C@@H](n2cc(C(N)=O)c3c(N)ncnc32)[C@H](O)[C@@H]1O [Compound 11aiii] | ++ | ++ | ++ | ++ | 4530 | 1360 | 2460 | 2810 | 7340 | 5570 | – | – | – | – | – | – |
| C#Cc1cn([C@@H]2S[C@H](CNCC)[C@@H](O)[C@H]2O)c2ncnc(N)c12 [Compound 11b, (2R,3R,4S,5R)-2-(4-amino-5-ethynyl-7H-pyrrolo[2,3-d]pyrimidin-7-yl)-5-((ethylamino)methyl)tetrahydrothiophene-3,4-diol] | +++ | ++ | ++ | +++ | – | – | – | – | – | – | 12200 | 12800 | 14500 | 14000 | 13000 | 10800 |
| C#Cc1cn([C@@H]2SC[C@@H](O)[C@H]2O)c2ncnc(N)c12 [Compound 13a] | ++ | ++ | ++ | ++ | 590 | 850 | 1150 | 1390 | 1270 | 1200 | – | – | – | – | – | – |
| Nc1ncnc2c1c(-c1ccco1)cn2[C@@H]1SC[C@@H](O)[C@H]1O [Compound 13b] | ++ | +++ | +++ | ++ | 960 | 860 | 1320 | 1740 | 640 | 1310 | – | – | – | – | – | – |
| Nc1ncnc2c1c(-c1cccs1)cn2[C@@H]1SC[C@@H](O)[C@H]1O [Compound 13c] | +++ | ++ | ++ | +++ | 2910 | 3380 | 5160 | 7010 | 2740 | 4120 | – | – | – | – | – | – |
| Nc1ncnc2c1c(-c1ccccc1)cn2[C@@H]1SC[C@@H](O)[C@H]1O [Compound 13d] | ++ | ++ | ++ | ++ | 6830 | 4310 | 5930 | 9900 | 7810 | 5660 | – | – | – | – | – | – |
| C=Cc1cn([C@@H]2SC[C@@H](O)[C@H]2O)c2ncnc(N)c12 [Compound 13e] | ++ | ++ | ++ | ++ | 4330 | 2840 | 5330 | 5340 | 5110 | 3540 | – | – | – | – | – | – |
| N#Cc1cn([C@@H]2SC[C@@H](O)[C@H]2O)c2ncnc(N)c12 [Compound 13f] | ++ | ++ | +++ | ++ | 2360 | 6370 | 2410 | 2450 | 5780 | 9350 | – | – | – | – | – | – |
| NC(=O)c1cn([C@@H]2SC[C@@H](O)[C@H]2O)c2ncnc(N)c12 [Compound 13g] | +++ | ++ | +++ | +++ | 5270 | 9730 | 5670 | 2240 | 2130 | 8460 | – | – | – | – | – | – |
| C#Cc1cn([C@@H]2S[C@H](CO)[C@@H](O)[C@H]2O)c2nc(Cl)nc(N)c12 [Compound 14, (2R,3R,4S,5R)-2-(4-amino-2-chloro-5-ethynyl-7H-pyrrolo[2,3-d]pyrimidin-7-yl)-5-(hydroxymethyl)tetrahydrothiophene-3,4-diol] | ++ | +++ | +++ | ++ | – | – | – | – | – | – | 350 | 7280 | 520 | 2450 | 1370 | 5460 |
